This note sets out measurements from article PMC8591608, “DNDI-6148: A Novel Benzoxaborole Preclinical Candidate for the Treatment of Visceral Leishmaniasis” (Journal of Medicinal Chemistry, 2021).

Series [1] concerns L. infantum and L. donovani. Briefly: Hamster models of infection (summary statement). Particulars: in vivo efficacy in hamster models of infection. The text has this: Female golden hamsters were randomly allocated to experimental groups of six animals each, based on body weight. At the start of the experiment (Day 0), each animal was infected with L. infantum or L. donovani inoculum, delivered by intracardial injection. Six hamsters were assigned to the vehicle-treated, infected control group. Six hamsters were assigned per group (1 group/compound) for the evaluation of compound and miltefosine. At Day 21 postinfection (21 dpi), all animals in each group were dosed orally for five (or ten) consecutive days (21–25 dpi): compound was dosed at 25–50 mg/kg b.i.d.; miltefosine was dosed at 40 mg/kg q.d. At Day 35 (10 days after the final oral dose), all animals were euthanized and autopsies were conducted. The study evaluated the following parameters. • 1. Adverse effects: all animals were observed daily for the occurrence/presence of adverse effects. • 2. […] Parasite burden: amastigote burdens in each target organ (liver, spleen, and bone marrow) were determined at Day 35. […] Impression smears were stained with Giemsa for microscopic examination of the total amastigote burden, defined as the mean number of amastigotes per cell multiplied by the number of cells counted (minimum 500 nuclei); the results were expressed as a percentage reduction in amastigote burden compared to vehicle-treated, infected control animals.

The nature of series [2]: Metabolite identification in microsomes. Format: in vitro ADME, rat, mouse, dog, human, hamster. On the procedure:
Metabolite identification studies were conducted at WuXi AppTec, China. DNDI-6148 was incubated at 10 μM in the presence of Beagle dog and Sprague-Dawley rat liver microsomes (1 mg/mL) for 60 min. Following precipitation with a solution of formic acid and acetonitrile, metabolites were identified by LC-UV-MSn (n = 1–2).

The next series concerns the target CYP1A2 (Homo sapiens, UniProt P05177). Briefly: CYP inhibition, CYP1A2. Format: in vitro ADME. Particulars: human liver microsomes. How it is done:
(§1) The study was conducted by WuXi AppTec, Co., China, using the time-dependent (TDI) method. […] Following incubation with substrates (phenacetin for 1A2, diclofenac for 2C9, S-(+) mephenytoin for 2C19, dextromethorphan for 2D6, and midazolam or testosterone for 3A4), reactions were stopped by adding ice-cold acetonitrile, the samples were analyzed for the formation of metabolites by LC-MS/MS, and the percentage of inhibition was determined.

In a further series the target is CYP2C9 (Homo sapiens, UniProt P11712). Briefly: CYP inhibition, CYP2C9. Format: in vitro ADME. The settings on record: human liver microsomes. How it is done:
as §1
For orientation: Liver microsomes are a subcellular fraction often used to study metabolism.

A short description of series [3]: Plasma-protein binding, dog. The settings on record: Beagle, pH 7.4. Format: in vitro ADME. How it is done:
(§2) Tests were conducted by WuXi AppTec, Co., China, using the equilibrium dialysis method and a 96-well plate format. The test compound (at 2 μM, in triplicate) in solution in plasma (Balb/c mouse, golden (Syrian) hamster, Sprague-Dawley rat, Beagle dog or human) was dialyzed against 100 mM phosphate-buffered saline (pH 7.4) on a rotating plate incubated for 6 h at 37 °C. Following the precipitation of protein with acetonitrile or acetonitrile/methanol containing both 1% phosphoric acid, the amount of compound present in each compartment was quantified by LC-MS/MS.

A short description of series [4]: Plasma-protein binding, mouse. Format: in vitro ADME. Particulars: Balb/c, pH 7.4. How it is done: as §2
Series [5] in a line: Plasma-protein binding, rat. Format: in vitro ADME. The settings on record: Sprague-Dawley, pH 7.4. On the procedure: as §2
Series [6] in a line: Plasma-protein binding, hamster. The series is classed as in vitro ADME. The settings on record: golden (Syrian), pH 7.4. On the procedure: as §2
Another series can be described thus: Thermodynamic solubility. Format: physicochemical. How it is done:
The thermodynamic solubility was measured by WuXi AppTec, China. Aliquots of the compound DMSO stock (10 mM) were transferred to fasted state simulated intestinal fluid (FaSSIF) buffer (pH 6.5) or fed state simulated intestinal fluid (FeSSIF) buffer (pH 5.0), and the mixtures were shaken for 24 h at room temperature. Following sampling by a Whatman filter device, the compound concentrations were determined by UV spectroscopy.

Series [7] relates to wild-type T. brucei trypanosomes. The series is described as follows: Drug sensitivity, wild-type T. brucei. The series is classed as cell-based. Particulars: Trypanosoma brucei. How it is done:
(§3) The clonal L. donovani cell line LdBOB (derived from MHOM/SD/62/1S-CL2D) was grown as promastigotes at 28 °C, as described previously. Bloodstream form T. brucei MiTat 1.2 clone 221a and its derived subline, 2T1, were cultured at 37 °C in the presence of 5% CO2 in HMI9-T medium, as described previously. T. brucei cell lines overexpressing CPSF3 and overexpressing a mutated version of CPSF3 (Asn232His) were generated as part of a previous study and cultured as described.[19]
(§4) Drug sensitivity assays with wild-type and transgenic T. brucei and L. donovani cell lines were carried out as previously described.[31],[32]

The test system of series [8] is wild-type L. donovani promastigotes. Briefly: Drug sensitivity, wild-type L. donovani promastigotes. Format: cell-based. Particulars: Leishmania donovani, Figure 2D. On the procedure: as §3, §4
For series [9], the system named is L. donovani clones, CPSF3 Asn219His. The series is described as follows: Drug sensitivity, L. donovani CRISPR-Cas9 edited CPSF3 Asn219His. Particulars: listed as DNDI-6148. The series is classed as cell-based. How it is done:
A cell line constitutively expressing Cas9 and T7 RNA polymerase was generated by transfecting 4 × 10^7 promastigotes with the pTB007 vector (10 μg), as previously described.[29] Expression of Cas9 in selected clones was confirmed by western blotting (Figure S1). In addition, the CRISPR-Cas9 system in these parasites was confirmed as functional following the successful tagging of the flagellar protein PF16 with mNeonGreen, as previously described.[29]
To introduce specific mutations into CPSF3, 3 × 10^6 promastigotes expressing Cas9 and T7 RNA were resuspended in a 110 μL of Human T-Cell Nucleofector reagent and transfected with 18 μL of sgRNA and 4 μg of template using the Amaxa Nucleofector electroporator (program V-033). sgRNA was produced according to the previously established protocol from the Gluenz lab,[30] in which the scaffold primer G00 and a gene-specific forward primer (FwsgRNA) were used (Table S1). Twenty-four hours following transfection, DNDI-6148 was added to cultures at 6 μM. Drug-selected populations were cloned by limiting dilution, EC50s were determined, and genomic DNA was extracted. The CPSF3 gene from CRISPR-edited parasites was amplified by PCR, and the resulting products were sequenced.
as §4

Molecules are shown by their SMILES. In brackets after ≈: the same amount, converted by molar mass. Several values for one entry are separate records, joined by “and”; a condition that tells them apart may be missing. Equal entries are not always repeated. Where two headings read alike, the source gives them in different places. Bounds are passed on as bounds.

Chain of CYP2C9 (P11712 whole entry): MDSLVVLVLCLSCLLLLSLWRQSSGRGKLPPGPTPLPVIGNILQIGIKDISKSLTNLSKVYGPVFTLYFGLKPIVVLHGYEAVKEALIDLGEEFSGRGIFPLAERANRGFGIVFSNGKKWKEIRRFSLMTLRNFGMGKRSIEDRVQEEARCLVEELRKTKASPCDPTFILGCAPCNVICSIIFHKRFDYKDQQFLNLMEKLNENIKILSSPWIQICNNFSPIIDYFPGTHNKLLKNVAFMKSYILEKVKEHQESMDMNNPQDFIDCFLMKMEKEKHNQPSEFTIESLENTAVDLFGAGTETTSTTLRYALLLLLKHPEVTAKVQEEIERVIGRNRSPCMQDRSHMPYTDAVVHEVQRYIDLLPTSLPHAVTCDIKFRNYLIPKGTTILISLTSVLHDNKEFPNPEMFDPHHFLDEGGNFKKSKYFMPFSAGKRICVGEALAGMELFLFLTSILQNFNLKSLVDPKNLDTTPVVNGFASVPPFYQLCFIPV
Chain of CYP1A2 (P05177 whole entry): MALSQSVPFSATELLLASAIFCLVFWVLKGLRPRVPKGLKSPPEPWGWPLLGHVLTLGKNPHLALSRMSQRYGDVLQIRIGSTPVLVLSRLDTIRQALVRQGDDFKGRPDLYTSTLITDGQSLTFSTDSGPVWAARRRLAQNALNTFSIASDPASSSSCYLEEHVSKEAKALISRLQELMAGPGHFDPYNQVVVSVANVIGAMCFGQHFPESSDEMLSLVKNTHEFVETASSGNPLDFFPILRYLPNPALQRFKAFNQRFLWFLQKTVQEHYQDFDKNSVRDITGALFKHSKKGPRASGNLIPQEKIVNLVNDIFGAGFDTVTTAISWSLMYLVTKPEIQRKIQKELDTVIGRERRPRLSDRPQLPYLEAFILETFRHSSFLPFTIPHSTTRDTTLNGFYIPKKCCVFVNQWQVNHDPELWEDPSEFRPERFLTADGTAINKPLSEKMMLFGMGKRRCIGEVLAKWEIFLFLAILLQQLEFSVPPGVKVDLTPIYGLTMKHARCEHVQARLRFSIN

On to `Cc1c(C(=O)Nc2ccc3c(c2)B(O)OC3)nnn1-c1ccccn1` [Compound 23, N-(1-Hydroxy-1,3-dihydrobenzo[c][1,2]oxaborol-6-yl)-5-methyl-1-(pyridin-2-yl)-1H-1,2,3-triazole-4-carboxamide], for which the “reduction in parasite burden” value in series [1] is reported as greater than 98%. In addition, the reactive metabolite formation result in series [2] (microsomes, any species) is on record as “no evidence of reactive metabolite formation”. For the same compound, the “metabolism in rat microsomes” value in [2] (rat microsomes) is “No metabolism was detected”. The IC50 at CYP1A2 and against CYP2C9 was greater than 50000 nM each time. The fraction unbound (as a rule, free concentration divided by total concentration) at 6 h, 2 µM in series [3] is 0.13; in [4], 0.07; in [5], 0.08; in [6] it was 0.12. Moreover, the solubility (usually the concentration that dissolves in the medium under given conditions) at 24 h in “Thermodynamic solubility” (FaSSIF buffer pH 6.5, read-out: FaSSIF solubility) came out at 5.4 µg/mL (≈ 16.1 µM); in the series “Thermodynamic solubility” (FeSSIF buffer pH 5.0, read-out: FeSSIF solubility), 6.3 µg/mL (≈ 18.8 µM). In addition, the EC50 – broadly, the concentration at which the effect is half-maximal – in series [7] (Figure 2A) was determined as 47 ± 0.9 nM; in [7] (Figure 2B), 67 ± 1 nM; in series [8], 411 ± 12 nM. In addition, in series [9], the “Fold change (relative to WT)” value was 3.0 fold and 3 fold.
